Broadly, the Ki is the dissociation constant of the complex between target and ligand, obtained from inhibition or displacement.

This test concerns the target Adenosine receptor A2a (Rattus norvegicus, UniProt P30543).

Chain of Adenosine receptor A2a (P30543 whole entry): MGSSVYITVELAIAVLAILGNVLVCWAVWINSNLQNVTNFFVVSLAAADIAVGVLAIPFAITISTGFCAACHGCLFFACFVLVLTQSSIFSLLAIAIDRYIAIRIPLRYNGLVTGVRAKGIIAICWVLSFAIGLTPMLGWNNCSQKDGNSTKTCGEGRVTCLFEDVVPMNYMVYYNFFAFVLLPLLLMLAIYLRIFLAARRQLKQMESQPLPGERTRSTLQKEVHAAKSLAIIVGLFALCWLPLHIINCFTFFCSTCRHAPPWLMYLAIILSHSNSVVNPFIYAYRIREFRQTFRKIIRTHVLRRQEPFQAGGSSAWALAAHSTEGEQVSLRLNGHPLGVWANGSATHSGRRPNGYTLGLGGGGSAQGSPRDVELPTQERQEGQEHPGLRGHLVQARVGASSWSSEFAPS

Take `Cn1c(=O)c2[nH]c(-c3ccccc3)nc2n(C)c1=O` [1,3-Dimethyl-8-phenyl-3,9-dihydro-purine-2,6-dione]: the Ki was over 10 µM.

`Cn1c(=O)c2[nH]c(-c3ccc(S(=O)(=O)O)cc3)nc2n(C)c1=O` [4-(1,3-Dimethyl-2,6-dioxo-2,3,6,7-tetrahydro-1H-purin-8-yl)-benzenesulfonic acid]: the Ki is over 10 µM.
